Assay results as given in ChEMBL document CHEMBL3430912, “GSK Tres Cantos Anti-Kinetoplastid Screening (TCAKS) Data”.

What was measured:
[1] = tested on: Trypanosoma brucei brucei; assay: GSK_TCAKS: pIC50 Trypanosoma brucei viability assay using luminiscence. Assay plates (1536-well) were prepared. T. brucei cultures were harvested and counted in a CASY cell counter. A parasite suspension was prepared at a final concentration of 5 * 10^4 cells/mL in complete HMI9 medium and 6uL was dispensed to all wells containing compounds using a Multidrop Combi dispenser. 6uL of HMI9 media with 0.4% DMSO were dispensed to control columns. Plates were incubated for 24 h at 37C, 5% CO2 then tempered for 10 min at room temperature. ATP content was quantified by adding 4 uL of CellTiter-Glo Reagent (Promega) according to the manufacturer's instructions. Luminescence was measured using a ViewLux.; assay type: functional, organism-based; settings: Lister 427, CASY
Trypanosoma cruzi [2] = assay: (§1) GSK_TCAKS: pIC50 Trypanosoma cruzi Imaging: Infected Cells. […] Cells were then washed once with PBS before infection. T. cruzi trypomastigotes, collected at days 5 to 8 after infection from LLC-MK2 parasite infected cultures, were allowed to swim out for 4h at 37C from a centrifuged pellet (2,500 rpm/10 min/room temperature). Trypomastigotes were then collected and counted in a CASY Cell Counter. Trypomastigotes, in supplemented DMEM, were added to H9c2 cultures in a multiplicity of infection of 1 and incubated for 18 h. Cells were washed once with PBS before incubation of the infected H9c2 monolayer with trypsin (Life-Technologies) to detach cells from the flask. Cells were counted in a CASY Cell Counter using a 150 um capillary and their density set at 5 * 10^4 cells per mL in supplemented assay DMEM. Infected H9c2 were dispensed into 384-well poly-lysine coated assay plates at 50uL per well using a Multidrop Combi dispenser. After seeding them, the plates were incubated at 37C, 5% CO2 for 72h. Cultures were then fixed and stained by addition of 50 uL of a solution containing 8% formaldehyde and 4 uM DRAQ5 DNA dye (BioStatus, UK) per well. […] Five images were collected per well for reliable statistical analysis. Automated image analysis was performed with a script developed on Acapella High Content Imaging and Analysis Software (PerkinElmer). Output: percentage of infected cells per well as a second infection marker.; assay type: functional, organism-based, Rattus norvegicus; settings: H9c2, 4 h
Trypanosoma cruzi [3] = assay: GSK_TCAKS: pIC50 Trypanosoma cruzi Imaging: Amastigotes/Cell. […] Cells were then washed once with PBS before infection. T. cruzi trypomastigotes, collected at days 5 to 8 after infection from LLC-MK2 parasite infected cultures, were allowed to swim out for 4h at 37C from a centrifuged pellet (2,500 rpm/10 min/room temperature). Trypomastigotes were then collected and counted in a CASY Cell Counter. Trypomastigotes, in supplemented DMEM, were added to H9c2 cultures in a multiplicity of infection of 1 and incubated for 18 h. Cells were washed once with PBS before incubation of the infected H9c2 monolayer with trypsin (Life-Technologies) to detach cells from the flask. Cells were counted in a CASY Cell Counter using a 150 um capillary and their density set at 5 * 10^4 cells per mL in supplemented assay DMEM. Infected H9c2 were dispensed into 384-well poly-lysine coated assay plates at 50uL per well using a Multidrop Combi dispenser. After seeding them, the plates were incubated at 37C, 5% CO2 for 72h. Cultures were then fixed and stained by addition of 50 uL of a solution containing 8% formaldehyde and 4 uM DRAQ5 DNA dye (BioStatus, UK) per well. […] Five images were collected per well for reliable statistical analysis. Automated image analysis was performed with a script developed on Acapella High Content Imaging and Analysis Software (PerkinElmer). Output: number of amastigotes per cell as infection level measurement.; assay type: functional, organism-based, Rattus norvegicus; settings: H9c2, 4 h
Leishmania donovani [4] = assay: (§2) GSK_TCAKS: pIC50 Leishmania donovani Imaging: THP-1 Host Macrophages. Assay plates (384-well) were prepared by adding 250nL of compound to each well. For single shot assay, the final compound concentration was 5 uM. […] Automated image analysis was performed with a script developed on Acapella High Content Imaging and Analysis Software (PerkinElmer). Output: THP-1 cell count were reported for each well.; assay type: functional, organism-based, Homo sapiens
Trypanosoma cruzi [5] = assay: GSK_TCAKS: pIC50 Trypanosoma cruzi viability assay using beta-GAL activity. This assay was run at single shot at 5uM compound concentration per well. The biological reagents consisted of NIH-3T3 host cells and trypomastigotes parasitic cells; both cell types were set to a 3.3 * 10^5 cells/mL dilution in assay DMEM by means of a CASY cell counter device using a 60um capillary. 6 uL of the mixture were dispensed per well (about 1 * 10^3 host-cells and 1 * 10^3 parasites) with a Multidrop Combi dispenser. […] In all wells, the percentage of DMSO never exceeded 0.5%. Plates incubated for four days at 37C, 5% CO2. The substrate used for the assay fluorescence intensity (FLINT) readout was resorufin-beta-D-galactopiranoside (Sigma-Aldrich) at 5uM per well. It was diluted in PBS supplemented with the soft detergent Igepal (Fluka).; assay type: functional, organism-based, Mus musculus; settings: Tulahuen, NIH3T3
Leishmania donovani [6] = assay: as §2, with “Infected” for “THP-1 Host”, “Percent of infected macrophage cells” for “THP-1 cell count”; assay type: functional, organism-based, Homo sapiens; settings: THP-1
Trypanosoma cruzi [7] = assay: as §1, with “H2C9” for “Trypanosoma cruzi”, “H9c2 Host Cardiomyocytes.” for “Infected Cells.”, “Number” for “percentage”, “H9c2 Host Cardiomyocytes nuclei to determine drug-related cytotoxicity.” for “infected cells per well as a second infection marker.”; assay type: functional, organism-based, Rattus norvegicus; settings: H9c2, 4 h
Leishmania donovani [8] = assay: GSK_TCAKS: pIC50 Leishmania donovani viability assay using fluorescence intensity. Assay plates (1536-well) were prepared by adding 30nL per well of compound. For single shot assay, the final compound concentration was 5uM. […] Briefly, eGFP LdBOB axenic amastigotes were harvested, fixed and counted in a CASY cell counter (Roche-Applied Science). A final concentration of 1.5 * 10^5 cells per well were prepared in amastigote media containing 500 U/mL penicillin/streptomycin (Invitrogen) and 6uL was dispensed to each experimental well using a Multidrop Combi dispenser (Thermo Scientific). 6uL of assay media was dispensed to control columns used as reference for 100% compound response. Following incubation for 72 h at 37C, 5% CO2, 2 uL of resazurin was added to each well at a final concentration of 0.5 mM in phosphate buffered saline (PBS) with IGEPAL (Sigma-Aldrich), 0.05% (v/v).; assay type: functional, organism-based
Leishmania donovani [9] = assay: as §2, with “Amastigotes/Macrophages.” for “THP-1 Host Macrophages.”, “Average number of amastigotes per macrophage” for “THP-1”, “cell” for “cell count”; assay type: functional, organism-based, Homo sapiens; settings: THP-1
[10] = tested on: Trypanosoma brucei brucei; assay: GSK_TCAKS: pIC50 Trypanosoma brucei viability assay using fluorescence intensity. Assay plates (1536-well) were prepared by dispensing 25nL of compound solution per well using an Echo acoustic dispenser (Labcyte).; assay type: functional, organism-based; settings: Lister 427, 2 h
[11] = biological target: Sterol 14-alpha demethylase (Trypanosoma cruzi (strain CL Brener), UniProt Q7Z1V1); assay: GSK_TCAKS: pIC50 CYP51 from Trypanosoma cruzi.; assay type: functional
[12] = GSK_TCAKS: pIC50 HepG2 human cell line viability assay using luminiscence. […] Seeding density was checked to ensure that new mono-layers were not more than 50% confluent at the time of harvesting. Cell suspension was added to 500 mL of the same medium at a final density of 1.2 * 10^5 cells/mL. This cell suspension was dispensed (25 uL, 3000 cells per well) into 384-well clear-bottom plates using a Multidrop Combi dispenser. Prior to addition of the cell suspension, the screening compounds (250 nL) were pre-dispensed into the plates with an Echo liquid handler. Plates were incubated for 48 h at 37C, 5% CO2. After incubation, plates equilibrated at room temperature for 30 min before proceeding to develop the luminescent signal. The signal developer, CellTiter-Glo Reagent, was allowed to equilibrate at room temperature for 30 min and added to the plates (25uL per well) using a Multidrop Combi dispenser. Plates were left for 10 min at room temperature for stabilization and then read using a ViewLux.; assay type: toxicity, cell-based

Sterol 14-alpha demethylase, sequence (Q7Z1V1 whole entry): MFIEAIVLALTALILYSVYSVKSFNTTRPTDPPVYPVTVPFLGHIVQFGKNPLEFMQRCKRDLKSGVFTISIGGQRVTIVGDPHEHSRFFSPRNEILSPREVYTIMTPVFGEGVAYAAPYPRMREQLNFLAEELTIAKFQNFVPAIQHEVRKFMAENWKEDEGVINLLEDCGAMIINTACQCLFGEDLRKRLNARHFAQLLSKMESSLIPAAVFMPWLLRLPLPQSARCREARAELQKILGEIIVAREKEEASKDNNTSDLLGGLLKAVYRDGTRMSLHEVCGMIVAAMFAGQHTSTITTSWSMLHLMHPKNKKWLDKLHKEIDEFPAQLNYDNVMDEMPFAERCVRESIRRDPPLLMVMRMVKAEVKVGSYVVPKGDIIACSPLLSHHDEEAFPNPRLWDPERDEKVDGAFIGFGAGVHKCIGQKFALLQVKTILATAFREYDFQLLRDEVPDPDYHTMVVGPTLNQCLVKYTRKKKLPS

| SMILES | IC50 [1] | IC50 (Trypanosoma cruzi [2]) | IC50 (Trypanosoma cruzi [3]) | IC50 (Leishmania donovani [4]) | IC50 (Trypanosoma cruzi [5]) | IC50 (Leishmania donovani [6]) | IC50 (Trypanosoma cruzi [7]) | IC50 (Leishmania donovani [8]) | IC50 (Leishmania donovani [9]) | IC50 [10] | IC50 [11] | IC50 at 48 h [12] |
| --- | --- | --- | --- | --- | --- | --- | --- | --- | --- | --- | --- | --- |
| CCCCN(C(=O)c1ccc(NC(=O)C(C)C)cc1)c1ccccc1 | > 39.8 µM | > 50.1 µM | 10 µM | > 50.1 µM | 20 µM | 5.01 µM | > 50.1 µM | 1 µM | 3.16 µM | 15.8 µM | 12.6 µM | > 100 µM |
| CN1CCC(N(C)c2nccc(N3CCN(C(=O)c4cccc(-c5cccnc5)c4)CC3)n2)CC1 | 1 µM | 1.26 µM | 1 µM | 7.94 µM | 0.316 µM | 1.26 µM | 7.94 µM | > 50.1 µM | 1.26 µM | 0.794 µM | 1.58 µM | 39.8 µM |
| CC(C)c1sc(Cl)nc1C(=O)NCCc1nc(C(=O)Nc2ccc3c(c2)OCO3)cs1 | 25.1 µM | 1 µM | 0.631 µM | > 50.1 µM | 4.47 µM | 5.01 µM | > 50.1 µM | 3.98 µM | 2.51 µM | 25.1 µM | 7.94 µM | > 100 µM |
| Cc1cc(N2CCc3ccccc3C2)nc(Nc2ccc(S(=O)(=O)N3CCOCC3)cc2)n1 | > 39.8 µM | > 50.1 µM | 25.1 µM | 25.1 µM | > 50.1 µM | 5.01 µM | > 50.1 µM | 3.16 µM | 1.58 µM | 31.6 µM | > 100 µM | > 100 µM |
| N#Cc1cccc(Nc2nccc(N3CCC(NS(=O)(=O)c4cccc(C#N)c4)CC3)n2)c1 | 6.31 µM | 7.94 µM | 3.16 µM | > 50.1 µM | 1.58 µM | 10 µM | 31.6 µM | 0.631 µM | 6.31 µM | 6.31 µM | 7.94 µM | 50.1 µM |
| CCC(CC)C(=O)Nc1ccc(-c2nnc(-c3ccc(OC)cc3)o2)cc1 | 0.501 µM | 12.6 µM | 3.98 µM | > 50.1 µM | 5.01 µM | > 50.1 µM | > 50.1 µM | > 50.1 µM | > 50.1 µM | 0.501 µM | 12.6 µM | > 100 µM |
| Cc1nn2c(=O)c3c([nH]c2c1-c1ccc(Cl)cc1)CCCC3 | 0.316 µM | 1 µM | 0.251 µM | 12.6 µM | 0.398 µM | > 50.1 µM | > 50.1 µM | 1.26 µM | > 50.1 µM | 0.158 µM | > 100 µM | > 100 µM |
| O=C(N[C@H](CO)c1ccccc1)c1ccc(-c2c[nH]c3nccc(C(F)(F)F)c23)s1 | 0.398 µM | 10 µM | 10 µM | 12.6 µM | 7.94 µM | 25.1 µM | 12.6 µM | 31.6 µM | 15.8 µM | 0.158 µM | 6.31 µM | 63.1 µM |
| O=C(CCc1ccc(-c2ccccc2)o1)N1CCN(c2ccc(O)cc2)CC1 | 39.8 µM | 1.26 µM | 0.794 µM | > 50.1 µM | 3.16 µM | 3.98 µM | > 50.1 µM | 10 µM | 1.26 µM | 25.1 µM | 2.51 µM | > 100 µM |
| COc1cnc2ccc(=O)n(CCN3CCC(NC(=O)Cc4ccc(Cl)c(Cl)c4)CC3)c2c1 | 0.501 µM | 0.398 µM | 0.158 µM | 25.1 µM | 0.316 µM | 39.8 µM | 6.31 µM | 5.01 µM | 5.01 µM | 0.251 µM | 0.794 µM | 63.1 µM |
| O=C(CN1CCN(c2ccccn2)CC1)Nc1cc(S(=O)(=O)N2CCCCCC2)ccc1Cl | 25.1 µM | 7.94 µM | 6.31 µM | 50.1 µM | 10 µM | 6.31 µM | > 50.1 µM | 7.94 µM | 1.26 µM | 12.6 µM | 3.16 µM | > 100 µM |
| CC(C)COC(=O)Nc1ccc(N2CCC(CNS(=O)(=O)c3ccccc3)CC2)c(F)c1 | 20 µM | 7.94 µM | 7.94 µM | > 50.1 µM | 10 µM | 2 µM | > 79.4 µM | 3.98 µM | 1.26 µM | 2.51 µM | 2 µM | > 100 µM |
| Cn1c(CC(=O)NNC(=O)c2ccc3ccccc3n2)nc2ccccc21 | 6.31 µM | 5.01 µM | 6.31 µM | > 50.1 µM | 3.16 µM | 1.26 µM | > 50.1 µM | 6.31 µM | 0.794 µM | 7.94 µM | 31.6 µM | > 100 µM |
| O=C(NNC(=O)c1ccccn1)c1ccc(-c2ccccc2)cc1 | 0.631 µM | 1.58 µM | 1.26 µM | 3.16 µM | 1.58 µM | 6.31 µM | 2 µM | 3.16 µM | 3.16 µM | 0.316 µM | 31.6 µM | > 100 µM |
| COc1ccc(C(=O)Nc2ccc(NC(=O)CO)cc2)cc1 | 0.251 µM | > 50.1 µM | > 50.1 µM | 20 µM | > 50.1 µM | > 50.1 µM | > 50.1 µM | > 50.1 µM | > 50.1 µM | 0.251 µM | > 100 µM | > 100 µM |
| CN(C)S(=O)(=O)c1ccc(Cl)c(C(=O)Nc2nc(-c3ccccn3)cs2)c1 | 0.398 µM | 2 µM | 1.26 µM | 6.31 µM | 1.58 µM | 10 µM | 6.31 µM | 2 µM | 5.01 µM | 0.501 µM | 31.6 µM | > 100 µM |
| Cc1nc(C(=O)Nc2ccc3c(c2)OCO3)nn1-c1ccc(Cl)cc1 | > 39.8 µM | 1.58 µM | 1 µM | 12.6 µM | 6.31 µM | 2 µM | > 50.1 µM | 2.51 µM | 1.58 µM | > 39.8 µM | 31.6 µM | > 100 µM |
